Results: patent US6942966B1, “Methods for processing chemical compounds having reactive functional groups” (ISIS Pharmaceuticals, Inc., priority 1995, dated 2005)

Molecular target: T1, human type II PLA2 (Homo sapiens, UniProt P14555)
T1 construct: made in house; host or cells: baculovirus system
T1 sequence (P14555 21-144): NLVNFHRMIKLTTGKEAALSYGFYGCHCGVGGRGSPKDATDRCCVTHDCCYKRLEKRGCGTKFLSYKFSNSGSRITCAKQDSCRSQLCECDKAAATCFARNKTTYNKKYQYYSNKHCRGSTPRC
Assay: E. coli PLA2 assay (3H-oleic acid labeled E. coli as substrate)
Type: biochemical
Conditions: compounds 33 and 34 assayed as a mixture at 100 μM, 50 μM, and 10 μM (final concentration)
From the text: After each round of synthesis as described in the above examples, the resulting pools of compounds are screened for inhibition of human type II PLA2 enzymatic activity. The assay is effected at the conclusion of each round of synthesis to identify the wining pool from that round of synthesis. Concurrently, the libraries additionally can be screened in other in vitro assays to determine further mechanisms of inhibition.
The pools of the macrocyclic libraries are screened for inhibition of PLA2 in the assay using E. coli labeled with ^3H-oleic acid (Franson et al., J. Lipid Res. 1974, 15, 380; and Davidson et al., J. Biol. Chem. 1987, 262, 1698) as the substrate. Type II PLA2 (originally isolated from synovial fluid), expressed in a baculovirus system and partially purified, serves as a source of the enzyme. […] 165 μl of each supernate is then put into a scintillation vial containing 6 ml of scintillant (Scintiverse) and cpms are measured in a Beckman Liquid Scintillation Counter. […]
The compounds were assayed as a mixture at 100 μM, 50 μM, and 10 μM (final concentration). […] Duplicate assay values were averaged, background (no compound, no PLA2) was subtracted and the percentage of the positive control (no compound) was calculated.

Row | inhibitory activity in E. coli PLA2 assay | Substance
1 | showed inhibitory activity | 1,11,18,28-tetracarboxy-2,10,19,27-tetraaza-7,24-bis-(tosyl)aza-3,20-dioxa-[11.11]pyridinophane [compound 34]
2 | showed inhibitory activity | 1,11,18,28-tetracarboxy-2,10,19,27-tetraaza-7,22-bis-(tosyl)aza-3,26-dioxa-[11.11]pyridinophane [compound 33]
